Assay results as given in patent US20230277452A1, “COMPOSITIONS, DEVICES AND METHODS FOR TREATING NASAL, OTIC AND OTHER TISSUE INFECTION AND/OR INFLAMMATION” (priority 2020, published 2023).
Values belong to the compound of their own block, whether it stands above or below them.

Tests used:
[1] = system: Streptococci, Staphylococci, Gardnerella vaginalis, and Corynebacteria; settings: cited from earlier work
Pseudomonas aeruginosa = settings: cited from earlier work
[2] = cited from earlier work
[3] = Forced degradation of fluticasone propionate, percent recovery by HPLC; assay type: physicochemical
Protocol: A similar analysis was performed of the 0.005% fluticasone propionate cream (lot #2021-07-01).

[4] = Recovery of force-degraded fluticasone propionate spiked into placebo and of active cream, HPLC; assay type: physicochemical; settings: Spiked into placebo
[5] = humans with psoriasis, topical betamethasone dipropionate 0.05% spray or lotion BID for 15 days; majority of subjects not measurable; cited from earlier work

SMILES: Clc1ccccc1C(c1ccccc1)(c1ccccc1)n1ccnc1 [clotrimazole]
antibacterial activity [1]: antibacterial activity
effect on Pseudomonas aeruginosa (Pseudomonas aeruginosa): reduction

SMILES: C[C@]12C=CC(=O)C=C1CC[C@@H]1[C@@H]2[C@@H](O)C[C@@]2(C)[C@H]1CC[C@]2(O)C(=O)CO [prednisolone]
Biological Half Life [2]: 18-36 Hours

Actual Amount ([3]; Acid (0.1N HCl, 1 hour)): 12.1791 µg/mL
Actual Amount ([3]; Base (0.1N NaOH, 1 hour)): 11.7484 µg/mL
Actual Amount ([3]; Control): 12.5695 µg/mL
Actual Amount ([3]; Heat (60° C., 3 days)): 12.0739 µg/mL
Actual Amount ([3]; Light (white light, 3 days)): 11.6609 µg/mL
Actual Amount ([3]; Peroxide (3% H2O2, 1 hour)): 16.4961 µg/mL
Peak Area FP ([4]; Acid): 2.377
Peak Area RRT = 0.32 ([4]; Acid): 0.033
Peak Area RRT = 0.33 ([4]; Acid): no peak
Peak Area RRT = 1.17 ([4]; Acid): 0.221
Total MFM-Related Area ([4]; Acid): 2.631
Peak Area FP ([4]; Base): 2.395
Peak Area RRT = 0.32 ([4]; Base): 0.032
Peak Area RRT = 0.33 ([4]; Base): no peak
Peak Area RRT = 1.17 ([4]; Base): 0.166
Total MFM-Related Area ([4]; Base): 2.593
Peak Area FP ([4]; Control): 2.607
Peak Area RRT = 0.32 ([4]; Control): no peak
Peak Area RRT = 0.33 ([4]; Control): 0.012
Peak Area RRT = 1.17 ([4]; Control): 0.046
Total MFM-Related Area ([4]; Control): 2.665
Peak Area FP ([4]; Heat): 2.924
Peak Area RRT = 0.32 ([4]; Heat): no peak
Peak Area RRT = 0.33 ([4]; Heat): no peak
Peak Area RRT = 1.17 ([4]; Heat): 0.183
Total MFM-Related Area ([4]; Heat): 3.107
Peak Area FP ([4]; Light): 2.599
Peak Area RRT = 0.33 ([4]; Light): no peak
Peak Area RRT = 1.17 ([4]; Light): 0.159
Total MFM-Related Area ([4]; Light): 2.791
Peak Area FP ([4]; Peroxide): 2.424
Peak Area RRT = 0.32 ([4]; Peroxide): no peak
Peak Area RRT = 0.33 ([4]; Peroxide): no peak
Peak Area RRT = 1.17 ([4]; Peroxide): no peak
Total MFM-Related Area ([4]; Peroxide): 2.424
SMILES: CCC(=O)O[C@]1(C(=O)SCF)[C@H](C)C[C@H]2[C@@H]3C[C@H](F)C4=CC(=O)C=C[C@]4(C)[C@@]3(F)[C@@H](O)C[C@@]21C [fluticasone propionate]

SMILES: C[C@]12CCC(=O)C=C1CC[C@@H]1[C@@H]2[C@@H](O)C[C@@]2(C)[C@H]1CC[C@]2(O)C(=O)CO [hydrocortisone]
Biological Half Life [2]: 8-12 Hours

SMILES: C[C@]12C=CC(=O)C=C1CC[C@H]1[C@@H]3C[C@@H](O)[C@](O)(C(=O)CO)[C@@]3(C)C[C@H](O)[C@@]12F [triamcinolone]
Biological Half Life [2]: 18-36 Hours

SMILES: C[C@H]1C[C@@H]2[C@H]([C@@H](O)C[C@@]3(C)[C@H]2CC[C@]3(O)C(=O)CO)[C@@]2(C)C=CC(=O)C=C12 [Methyl-prednisolone, methylprednisolone]
Biological Half Life [2]: 18-36 Hours

SMILES: CCC(=O)OCC(=O)[C@@]1(OC(=O)CC)[C@@H](C)C[C@H]2[C@@H]3CCC4=CC(=O)C=C[C@]4(C)[C@@]3(F)[C@@H](O)C[C@@]21C [Betamethasone dipropionate, 9-Fluoro-11β,17,21-trihydroxy-16β-methylpregna-1,4-diene-3,20-dione 17,21-dipropionate]
Biological Half Life [2]: 36-54 Hours
plasma concentration [5]: < 5 pg/mL
